Results: article PMC6421522, “Designing Dual Inhibitors of Anaplastic Lymphoma Kinase (ALK) and Bromodomain-4 (BRD4) by Tuning Kinase Selectivity” (Journal of Medicinal Chemistry, 2019)

Experiments:
PLK-1 = molecular target: T1, PLK-1 (Homo sapiens, UniProt P53350); test: PLK-1 Z-LYTE activity assay (SelectScreen); type: biochemical; details: for fold decrease of PLK-1 activity/potency: relative to starting compound BI-2536
T1 construct: purchased Thermo Fisher Scientific (SelectScreen service)

ALK^F1174L = molecular target: T2, ALK^F1174L (Homo sapiens, UniProt Q9UM73, F1174L); test: LanthaScreen Eu kinase binding assay
T2 construct: purchased Carna Biosciences

ALK WT = ALK WT (Homo sapiens, UniProt Q9UM73); test: Biochemical ALK WT IC50; type: binding; details: geometric mean
HeLa cells = test: Mitotic arrest and mitotic markers in HeLa cells (Western blot); type: cell-based; details: HeLa cells, Western blot
Protocol: Protein extracts of cells were prepared by lysis in radioimmunoprecipitation assay buffer (Sigma) supplemented with protease inhibitors (complete protease inhibitor cocktail, Roche). Protein extracts (25 μg) were separated by sodium dodecyl sulfate-polyacrylamide gel electrophoresis and transferred onto poly(vinylidene difluoride) membranes using the Trans-Blot Turbo transfer system (BioRad). After blocking with 5% bovine serum albumin in PBS with 0.1% Tween-20 for 30 min, the membrane was incubated with primary antibodies for 1 h at room temperature. Horseradish peroxidase-linked secondary antibodies were incubated 30 min at room temperature followed by enhanced chemiluminescence (ECL) detection (ECL Western blot substrate, Pierce).
Primary antibodies were obtained from the following sources: PLK-1 (05-844) and phosphohistone H3 (Ser10) (05806) from Millipore; pPlk1-T210 (5472) from Cell Signaling; pPlk1-S137 (21738) from Abcam; and cyclin B1 (GNS1) and β-actin (A2228) from Sigma-Aldrich served as loading control.

T1 sequence (P53350 whole entry): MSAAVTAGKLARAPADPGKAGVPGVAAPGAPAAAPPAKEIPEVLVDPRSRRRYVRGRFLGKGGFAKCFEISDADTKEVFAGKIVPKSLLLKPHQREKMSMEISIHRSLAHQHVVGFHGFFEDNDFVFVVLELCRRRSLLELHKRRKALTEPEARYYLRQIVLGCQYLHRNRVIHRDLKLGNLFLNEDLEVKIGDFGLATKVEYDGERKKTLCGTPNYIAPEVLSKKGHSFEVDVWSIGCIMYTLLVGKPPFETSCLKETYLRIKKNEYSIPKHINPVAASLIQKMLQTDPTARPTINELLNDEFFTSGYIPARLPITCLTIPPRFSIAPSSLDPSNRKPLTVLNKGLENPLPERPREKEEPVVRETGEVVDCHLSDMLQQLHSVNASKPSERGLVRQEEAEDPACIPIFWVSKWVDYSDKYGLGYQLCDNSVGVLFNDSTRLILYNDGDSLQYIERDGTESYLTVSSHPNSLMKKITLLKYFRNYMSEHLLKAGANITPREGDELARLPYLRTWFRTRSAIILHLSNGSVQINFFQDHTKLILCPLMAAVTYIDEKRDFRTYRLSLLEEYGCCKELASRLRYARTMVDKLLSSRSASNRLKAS
Chain of ALK WT (Q9UM73 19-1620): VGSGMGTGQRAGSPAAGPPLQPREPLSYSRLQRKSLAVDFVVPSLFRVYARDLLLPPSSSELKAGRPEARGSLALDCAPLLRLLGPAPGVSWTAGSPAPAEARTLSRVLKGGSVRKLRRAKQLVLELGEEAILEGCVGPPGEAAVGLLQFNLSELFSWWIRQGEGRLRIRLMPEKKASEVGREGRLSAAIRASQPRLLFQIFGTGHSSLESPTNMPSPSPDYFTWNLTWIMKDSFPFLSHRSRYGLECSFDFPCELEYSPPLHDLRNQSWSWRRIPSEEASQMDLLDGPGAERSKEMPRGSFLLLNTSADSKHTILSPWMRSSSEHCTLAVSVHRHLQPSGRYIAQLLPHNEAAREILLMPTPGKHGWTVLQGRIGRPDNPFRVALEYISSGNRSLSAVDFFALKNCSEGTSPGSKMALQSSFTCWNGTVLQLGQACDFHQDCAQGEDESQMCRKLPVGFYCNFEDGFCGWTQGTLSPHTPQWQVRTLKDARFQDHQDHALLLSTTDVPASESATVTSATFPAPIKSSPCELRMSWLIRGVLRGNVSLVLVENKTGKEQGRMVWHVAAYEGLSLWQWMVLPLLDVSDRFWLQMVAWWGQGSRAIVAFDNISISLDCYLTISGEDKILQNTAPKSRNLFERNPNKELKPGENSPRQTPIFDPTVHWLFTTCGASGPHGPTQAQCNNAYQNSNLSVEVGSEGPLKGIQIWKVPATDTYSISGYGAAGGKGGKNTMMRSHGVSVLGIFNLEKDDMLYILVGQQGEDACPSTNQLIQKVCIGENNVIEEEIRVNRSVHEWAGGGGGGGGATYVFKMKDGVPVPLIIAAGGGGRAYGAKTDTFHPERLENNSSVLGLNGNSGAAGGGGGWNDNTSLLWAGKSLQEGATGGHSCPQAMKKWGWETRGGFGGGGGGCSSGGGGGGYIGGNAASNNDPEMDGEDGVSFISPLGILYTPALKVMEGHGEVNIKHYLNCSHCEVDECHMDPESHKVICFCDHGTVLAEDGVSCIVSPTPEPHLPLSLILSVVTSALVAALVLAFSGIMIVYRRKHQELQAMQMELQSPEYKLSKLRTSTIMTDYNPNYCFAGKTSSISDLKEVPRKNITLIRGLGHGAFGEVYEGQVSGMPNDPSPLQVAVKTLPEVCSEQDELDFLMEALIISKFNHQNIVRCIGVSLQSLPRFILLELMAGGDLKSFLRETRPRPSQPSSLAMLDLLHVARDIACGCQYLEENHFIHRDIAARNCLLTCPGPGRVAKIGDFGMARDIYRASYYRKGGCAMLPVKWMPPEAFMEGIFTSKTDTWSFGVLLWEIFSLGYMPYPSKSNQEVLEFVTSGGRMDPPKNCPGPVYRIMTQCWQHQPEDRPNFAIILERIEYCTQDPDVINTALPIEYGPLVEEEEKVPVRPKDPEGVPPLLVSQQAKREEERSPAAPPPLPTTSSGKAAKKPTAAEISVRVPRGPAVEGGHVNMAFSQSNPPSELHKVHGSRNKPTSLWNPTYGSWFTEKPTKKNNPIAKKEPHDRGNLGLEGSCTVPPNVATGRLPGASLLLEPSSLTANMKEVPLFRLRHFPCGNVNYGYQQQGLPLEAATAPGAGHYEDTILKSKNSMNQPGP
T2 sequence (Q9UM73 19-1620 F1174L): as the sequence (Q9UM73 19-1620) above, with F1156L counted along it

`CC[C@@H]1C(=O)N(C)c2cnc(Nc3ccc(C4CCN(C)CC4)cc3OC)nc2N1C1CCCC1` [16a, (R)-8-Cyclopentyl-7-ethyl-2-((2-methoxy-4-(1-methylpiperidin-4-yl)phenyl)amino)-5-methyl-7,8-dihydropteridin-6(5H)-one] was tested, and the “fold decrease of PLK-1 activity/potency” value (PLK-1) was “four-fold”.
For `CCOc1cc(C(=O)NC2CCN(C)CC2)ccc1Nc1ncc2c(n1)N(C1CCCC1)CC(=O)N2C` [16e, 4-((8-Cyclopentyl-5-methyl-6-oxo-5,6,7,8-tetrahydropteridin-2-yl)amino)-3-ethoxy-N-(1-methylpiperidin-4-yl)benzamide], the “fold reduction of ALK^F1174L potency” value (ALK^F1174L; on removal of the (R)-Et group) was 3 fold.
In the case of `CCOc1cc(C(=O)NC2CCN(C)CC2)ccc1Nc1ncc2c(n1)N(Cc1cccc(Br)c1)[C@H](CC)C(=O)N2C` [16f, (R)-4-((8-(3-Bromobenzyl)-7-ethyl-5-methyl-6-oxo-5,6,7,8-tetrahydropteridin-2-yl)amino)-3-ethoxy-N-(1-methylpiperidin-4-yl)benzamide], the “fold decrease of PLK-1 activity/potency” value (PLK-1) is reported as 30–40 fold.
In the case of `CCOc1cc(C(=O)NC2CCN(C)CC2)ccc1Nc1ncc2c(n1)N(Cc1ccccc1)[C@H](CC)C(=O)N2C` [16g, (R)-4-((8-Benzyl-7-ethyl-5-methyl-6-oxo-5,6,7,8-tetrahydropteridin-2-yl)amino)-3-ethoxy-N-(1-methylpiperidin-4-yl)benzamide], the “fold decrease of PLK-1 activity/potency” value (PLK-1) is reported as 30–40 fold.
In the case of `CCOc1cc(C2CCN(C)CC2)ccc1Nc1ncc2c(n1)N(Cc1cccc(Br)c1)[C@H](CC)C(=O)N2C` [16h, (R)-8-(3-Bromobenzyl)-2-((2-ethoxy-4-(1-methylpiperidin-4-yl)phenyl)amino)-7-ethyl-5-methyl-7,8-dihydropteridin-6(5H)-one], the “fold decrease of PLK-1 activity/potency” value (PLK-1) is reported as 100–200 fold.
For `CCOc1cc(C2CCN(C)CC2)ccc1Nc1ncc2c(n1)N(Cc1ccccc1)[C@H](CC)C(=O)N2C` [16i, (R)-8-Benzyl-2-((2-ethoxy-4-(1-methylpiperidin-4-yl)phenyl)amino)-7-ethyl-5-methyl-7,8-dihydropteridin-6(5H)-one], the “fold increase in ALK^F1174L potency” value (ALK^F1174L) was 2 fold, the IC50 (ALK WT) was 120 ± 11 nM and the “fold decrease of PLK-1 activity/potency” value (PLK-1) was 100–200 fold.
With `CCOc1cc(C2CCN(C)CC2)ccc1Nc1ncc2c(n1)N(Cc1sccc1C)[C@H](CC)C(=O)N2C` [16j, (R)-2-((2-Ethoxy-4-(1-methylpiperidin-4-yl)phenyl)amino)-7-ethyl-5-methyl-8-((3-methylthiophen-2-yl)methyl)-7,8-dihydropteridin-6(5H)-one] the IC50 (ALK WT) was 89 ± 4 nM.
In the case of `CCOc1cc(C2CCN(C)CC2)ccc1Nc1ncc2c(n1)N(Cc1cccc(C#N)c1)[C@H](CC)C(=O)N2C` [23b, (R)-3-((2-((2-Ethoxy-4-(1-methylpiperidin-4-yl)phenyl)amino)-7-ethyl-5-methyl-6-oxo-6,7-dihydropteridin-8(5H)-yl)methyl)benzonitrile], the “ALK selectivity over PLK-1” value (PLK-1; biochemical IC50s ALK^F1174L vs PLK-1) is reported as 5 fold and the “fold decrease of PLK-1 activity/potency” value (PLK-1) is reported as over 700 fold.
For `CC[C@@H]1C(=O)N(C)c2cnc(Nc3ccc(C(=O)NC4CCN(C)CC4)cc3OC)nc2N1C1CCCC1` [BI-2536, reference compound], the “concentration inducing mitotic arrest and increased PLK-1, cyclin B1, phosphohistone H3” value (HeLa cells) was at most 50 nM.
